Laboratory results: paper PMC9898226, “Emergence of a proton exchange-based isomerization and lactonization mechanism in the plant coumarin synthase COSY” (Nature Communications, 2023)

Columns and labels:
Assay type in all cases: biochemical
AtCOSY [1] = biological target: T1, AtCOSY (Arabidopsis thaliana, UniProt Q8LF28); experiment: coupled At4CL1 assay, LC-MS of umbelliferone; conditions: substrate made in situ by At4CL1 from 2-hydroxy-p-coumaric acid (CAS 614-86-8), ATP, CoA, Mg2+; 20 mM HEPES
T1 construct: gene COSY; N-terminal 8xHis tag with TEV site (pHis8-4), tag cleaved; E. coli BL21(DE3); domains 1-181, 182-229, 230-451
T1 sequence (Q8LF28 1-451): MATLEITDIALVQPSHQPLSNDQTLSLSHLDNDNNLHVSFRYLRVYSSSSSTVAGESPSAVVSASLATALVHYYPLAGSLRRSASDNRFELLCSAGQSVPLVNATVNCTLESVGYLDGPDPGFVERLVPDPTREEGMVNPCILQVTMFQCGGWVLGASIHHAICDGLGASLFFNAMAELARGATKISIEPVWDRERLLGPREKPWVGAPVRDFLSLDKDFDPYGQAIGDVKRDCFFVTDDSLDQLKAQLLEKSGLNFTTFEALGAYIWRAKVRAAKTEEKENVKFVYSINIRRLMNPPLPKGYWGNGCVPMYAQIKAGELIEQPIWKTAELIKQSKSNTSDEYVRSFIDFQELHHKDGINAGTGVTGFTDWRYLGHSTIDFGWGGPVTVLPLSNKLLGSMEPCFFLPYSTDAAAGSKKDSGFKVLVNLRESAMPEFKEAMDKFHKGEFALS

SbCOSY = biological target: T2, SbCOSY (Sorghum bicolor, UniProt C5Z4D6); experiment: coupled At4CL1 assay, LC-MS of scopoletin; conditions: substrate made in situ by At4CL1 from 6-hydroxyferulic acid, ATP, CoA, Mg2+; 20 mM HEPES; spontaneous background
T2 construct: gene SORBI_3010G043700
T2 sequence (C5Z4D6 1-456): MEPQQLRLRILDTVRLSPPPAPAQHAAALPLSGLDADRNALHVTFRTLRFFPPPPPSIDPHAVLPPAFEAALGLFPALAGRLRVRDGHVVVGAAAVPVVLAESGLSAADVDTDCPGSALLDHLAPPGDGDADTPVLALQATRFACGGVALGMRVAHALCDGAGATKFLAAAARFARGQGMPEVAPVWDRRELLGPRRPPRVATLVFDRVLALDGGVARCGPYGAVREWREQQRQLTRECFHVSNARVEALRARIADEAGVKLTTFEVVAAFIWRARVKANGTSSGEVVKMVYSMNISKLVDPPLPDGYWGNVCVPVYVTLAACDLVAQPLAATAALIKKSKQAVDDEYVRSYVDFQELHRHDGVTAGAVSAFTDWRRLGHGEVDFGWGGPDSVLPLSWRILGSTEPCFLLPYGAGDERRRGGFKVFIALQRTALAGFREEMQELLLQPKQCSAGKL

AtCOSY [2] = biological target: T1, AtCOSY; experiment: coupled At4CL1 assay, LC-MS of scopoletin; conditions: substrate made in situ by At4CL1 from 6-hydroxyferulic acid, ATP, CoA, Mg2+; 20 mM HEPES; spontaneous background
GmCOSY = biological target: T3, GmCOSY (Glycine max, UniProt A0A0R0H5A1); experiment: coupled At4CL1 assay, LC-MS of scopoletin; conditions: substrate made in situ by At4CL1 from 6-hydroxyferulic acid, ATP, CoA, Mg2+; 20 mM HEPES; spontaneous background
T3 construct: gene LOC100817021
T3 sequence (A0A0R0H5A1 1-452): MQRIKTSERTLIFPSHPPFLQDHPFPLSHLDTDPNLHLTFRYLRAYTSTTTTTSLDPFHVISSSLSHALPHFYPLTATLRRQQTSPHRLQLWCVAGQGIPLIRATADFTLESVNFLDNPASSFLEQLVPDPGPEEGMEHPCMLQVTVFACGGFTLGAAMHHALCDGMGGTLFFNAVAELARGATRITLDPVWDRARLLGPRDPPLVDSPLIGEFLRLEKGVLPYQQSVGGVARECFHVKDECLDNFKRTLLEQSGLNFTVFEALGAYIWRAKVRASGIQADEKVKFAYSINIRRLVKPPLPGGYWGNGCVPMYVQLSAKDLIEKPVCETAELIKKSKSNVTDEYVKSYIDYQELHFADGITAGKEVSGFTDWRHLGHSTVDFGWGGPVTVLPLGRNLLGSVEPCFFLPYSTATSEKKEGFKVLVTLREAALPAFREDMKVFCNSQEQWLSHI

StCOSY = biological target: T4, StCOSY (Solanum tuberosum, UniProt M0ZYT4); experiment: coupled At4CL1 assay, LC-MS of scopoletin; conditions: substrate made in situ by At4CL1 from 6-hydroxyferulic acid, ATP, CoA, Mg2+; 20 mM HEPES; spontaneous background
T4 sequence (M0ZYT4 1-444): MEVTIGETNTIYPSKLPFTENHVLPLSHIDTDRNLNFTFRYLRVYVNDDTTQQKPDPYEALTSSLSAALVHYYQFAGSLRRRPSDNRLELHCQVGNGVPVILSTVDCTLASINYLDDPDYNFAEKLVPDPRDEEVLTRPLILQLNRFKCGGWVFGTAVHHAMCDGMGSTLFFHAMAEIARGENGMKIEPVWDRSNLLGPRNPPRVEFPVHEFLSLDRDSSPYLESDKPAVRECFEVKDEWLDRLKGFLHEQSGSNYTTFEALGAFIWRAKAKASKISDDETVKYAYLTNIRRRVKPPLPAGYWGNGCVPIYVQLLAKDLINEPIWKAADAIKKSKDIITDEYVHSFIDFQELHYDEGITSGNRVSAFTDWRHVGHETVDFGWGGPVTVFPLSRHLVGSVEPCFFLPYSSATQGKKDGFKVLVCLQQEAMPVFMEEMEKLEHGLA

Row | SMILES | coupled At4CL1 assay, LC-MS of umbelliferone (AtCOSY [1]) | coupled At4CL1 assay, LC-MS of scopoletin (SbCOSY) | coupled At4CL1 assay, LC-MS of scopoletin (AtCOSY [2]) | coupled At4CL1 assay, LC-MS of scopoletin (GmCOSY) | coupled At4CL1 assay, LC-MS of scopoletin (StCOSY)
1 | CC(C)(COP(=O)(O)OP(=O)(O)OC[C@H]1O[C@@H](n2cnc3c(N)ncnc32)[C@H](O)[C@@H]1OP(=O)(O)O)[C@@H](O)C(=O)NCCC(=O)NCCSC(=O)/C=C/c1ccc(O)cc1O [2-hydroxy-p-coumaroyl CoA] | addition of AtCOSY resulted in significant acceleration of coumarin production |  |  |  | 
2 | COc1cc(/C=C/C(=O)SCCNC(=O)CCNC(=O)[C@H](O)C(C)(C)COP(=O)(O)OP(=O)(O)OC[C@H]2O[C@@H](n3cnc4c(N)ncnc43)[C@H](O)[C@@H]2OP(=O)(O)O)c(O)cc1O [6-hydroxyferuloyl-CoA] |  | GmCOSY, StCOSY and SbCOSY contain coumarin synthase activity comparable to that of AtCOSY | addition of AtCOSY resulted in significant acceleration of coumarin production | GmCOSY, StCOSY and SbCOSY contain coumarin synthase activity comparable to that of AtCOSY | GmCOSY, StCOSY and SbCOSY contain coumarin synthase activity comparable to that of AtCOSY
